Data taken from patent US9187497B2, “Substituted pyrido[3,2-e]pyrrolo[1,2-a]pyrazines as inhibitors of poly(ADP-ribose)polymerase (PARP)” (Takeda Phamaceutical Company Limited, priority 2009, dated 2015).

How the values were obtained:
[1] = target: T1, PARP (Homo sapiens, UniProt P09874); assay: PARP ELISA colorimetric assay of inhibition of PARP catalytic activity (IC50); type: biochemical; conditions: pIC50=-log(IC50), IC50 in molar concentration; ELISA-based PARP kit, 10 minutes of catalysis
T1 construct: purchased Trevigen 4684-096-01 (enzyme); kit 4684-096-K HT
T1 sequence (P09874 whole entry): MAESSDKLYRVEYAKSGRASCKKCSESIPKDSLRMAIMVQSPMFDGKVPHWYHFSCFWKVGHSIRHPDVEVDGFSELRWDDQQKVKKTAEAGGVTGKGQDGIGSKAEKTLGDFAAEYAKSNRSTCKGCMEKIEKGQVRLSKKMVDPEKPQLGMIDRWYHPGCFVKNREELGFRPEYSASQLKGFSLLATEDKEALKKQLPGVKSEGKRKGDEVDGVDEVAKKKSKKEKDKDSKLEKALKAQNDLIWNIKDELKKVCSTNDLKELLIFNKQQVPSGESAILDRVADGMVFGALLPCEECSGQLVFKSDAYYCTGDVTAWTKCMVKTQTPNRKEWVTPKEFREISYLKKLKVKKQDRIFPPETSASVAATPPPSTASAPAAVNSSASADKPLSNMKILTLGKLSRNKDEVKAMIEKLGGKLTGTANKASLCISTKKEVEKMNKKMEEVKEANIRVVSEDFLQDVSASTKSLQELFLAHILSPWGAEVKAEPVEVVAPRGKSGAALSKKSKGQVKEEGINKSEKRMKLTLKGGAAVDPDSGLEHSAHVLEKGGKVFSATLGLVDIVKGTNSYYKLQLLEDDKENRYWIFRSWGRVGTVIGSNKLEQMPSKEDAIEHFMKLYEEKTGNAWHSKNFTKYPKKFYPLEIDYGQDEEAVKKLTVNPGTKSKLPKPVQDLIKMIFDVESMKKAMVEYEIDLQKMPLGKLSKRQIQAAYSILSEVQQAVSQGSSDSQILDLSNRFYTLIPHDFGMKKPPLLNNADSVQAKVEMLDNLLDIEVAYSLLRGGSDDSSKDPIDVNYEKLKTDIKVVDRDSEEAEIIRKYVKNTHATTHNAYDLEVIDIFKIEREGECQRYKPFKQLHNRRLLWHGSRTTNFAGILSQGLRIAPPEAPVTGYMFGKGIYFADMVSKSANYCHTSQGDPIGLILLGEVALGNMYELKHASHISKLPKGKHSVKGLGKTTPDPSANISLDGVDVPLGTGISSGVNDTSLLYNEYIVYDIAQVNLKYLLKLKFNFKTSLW
Method: Inhibition Constant (IC50) from PARP ELISA
Inhibition of PARP catalytic activity was determined by use of an ELISA-based colorimetric PARP/Apoptosis Assay kit (part number 4684-096-K HT, Trevigen). To each histone coated well in the 96-well plate supplied by the manufacturer (part number 4677-096-P) is added 39 μl of PARP buffer (part number 4671-096-02) and 1 μl of test compound dissolved in DMSO (diluted serially 3-fold 11 times). After mixing, 5 μl of 0.1 nM PARP (part number 4684-096-01) is added and the solution allowed to stand at ambient temperature for 10 minutes. PARP catalysis is initiated with the addition of 5 μl of 100 μM β-nicotinamide adenine dinucleotide (NAD+) (part number 4684-096-02) with activated DNA (part number 4671-096-06). After 10 minutes of catalysis the reaction is quenched by solvent aspiration followed by irrigation of the assay wells 4 times with phosphate buffered saline (PBS) containing 0.1% t-Octylphenoxypolyethoxyethanol (Triton® X-100). Mouse Anti-poly ADP ribose (PAR) monoclonal antibody, goat antimouse immunoglobulin G (IgG)-horse radish peroxidase (HRP) conjugate and HRP substrate are added according to the manufacture's specifications to generate a colorimetric signal proportional to PARP catalytic activity. An IC50 for the test compound is calculated from the equation Absorbance=(Amax−background)/(1+([cmpd]/IC50)^n)+background fit to the 12 point test compound concentration gradient via nonlinear least squares.

[2] = test system: Jurkat cell line; assay: PARP cellular chemopotentiation assay (MTS cell viability with and without TMZ); type: cell-based; conditions: ratio of EC50 for inhibition of cell viability without and with 100 μM TMZ; Jurkat cells, 96 hours of treatment
In short: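 Jurkat cells, 10,000/well, pre-cultured 24 h, then treated 96 h with serial compound dilutions (0.5% DMSO) with or without 100 μM TMZ. Viability by MTS conversion (OD490), normalized to DMSO controls; EC50 from curve fits, PF50 = EC50 without TMZ / EC50 with TMZ.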

SMILES: CNC(=O)c1ccc(N2CCN(Cc3cnc4c(c3)NC(=O)[C@@H]3CCCCN43)CC2)nc1 [Compound 77, (S)—N-methyl-6-(4-((6-oxo-6,6a,7,8,9,10-hexahydro-5H-dipyrido[1,2-a:3′,2′-e]pyrazin-3-yl)methyl)piperazin-1-yl)nicotinamide]
- IC50 [1]: 15.8 to 39.8 nM
- PF50 [2]: >10

SMILES: O=C1Nc2cc(CN3CCN(c4ccc(Cl)cc4)CC3)cnc2N2CCSCC12 (centres unmarked) [Compound 87, 3-((4-(4-chlorophenyl)piperazin-1-yl)methyl)-6a,7,9,10-tetrahydropyrido[3,2-e][1,4]thiazino[4,3-a]pyrazin-6(5H)-one]
- IC50 [1]: 15.8 to 39.8 nM
- PF50 [2]: >10

SMILES: N#Cc1ccc(N2CCN(Cc3cnc4c(c3)NC(=O)[C@@H]3CSCCN43)CC2)cc1 [Compound 90, (R)-4-(4-((6-oxo-5,6,6a,7,9,10-hexahydropyrido[3,2-e][1,4]thiazino[4,3-a]pyrazin-3-yl)methyl)piperazin-1-yl)benzonitrile]
- IC50 [1]: ≤ 12.6 nM
- PF50 [2]: >10

SMILES: CC(C)N1CC(=O)Nc2cc(CN3CC=C(c4ccc(Cl)cc4)CC3)cnc21 [Compound 94, 7-((4-(4-chlorophenyl)-5,6-dihydropyridin-1(2H)-yl)methyl)-4-isopropyl-3,4-dihydropyrido[2,3-b]pyrazin-2(1H)-one]
- IC50 [1]: ≥ 50.1 nM
- PF50 [2]: ≧0

SMILES: CC(C)N1CC(=O)Nc2cc(CN3CCN(c4ccc(Cl)cc4)CC3)cnc21 [Compound 95, 7-((4-(4-chlorophenyl)piperazin-1-yl)methyl)-4-isopropyl-3,4-dihydropyrido[2,3-b]pyrazin-2(1H)-one]
- IC50 [1]: ≥ 50.1 nM
- PF50 [2]: ≧0

SMILES: N#Cc1ccc(N2CCN(Cc3cnc4c(c3)NC(=O)[C@@H]3CCN43)CC2)cc1 [Compound 102, (S)-4-(4-((6-oxo-6,6a,7,8-tetrahydro-5H-azeto[1,2-a]pyrido[3,2-e]pyrazin-3-yl)methyl)piperazin-1-yl)benzonitrile]
- IC50 [1]: 15.8 to 39.8 nM
- PF50 [2]: ≧0

SMILES: N#Cc1ccc(N2CCN(Cc3cnc4c(c3)NC(=O)CC3CCCN43)CC2)cc1 (centres unmarked) [Compound 103, 4-(4-((6-oxo-6,7,7a,8,9,10-hexahydro-5H-pyrido[3,2-b]pyrrolo[1,2-d][1,4]diazepin-3-yl)methyl)piperazin-1-yl)benzonitrile]
- IC50 [1]: 15.8 to 39.8 nM
- PF50 [2]: ≧0

SMILES: O=C1CC2CCCN2c2ncc(CN3CCN(c4ccc(Cl)cc4)CC3)cc2N1 (centres unmarked) [Compound 104, 3-((4-(4-chlorophenyl)piperazin-1-yl)methyl)-7a,8,9,10-tetrahydro-5H-pyrido[3,2-b]pyrrolo[1,2-d][1,4]diazepin-6(7H)-one]
- IC50 [1]: ≥ 50.1 nM
- PF50 [2]: ≧0

SMILES: C[C@H]1CN(c2ccc(C#N)cc2)CCN1Cc1cnc2c(c1)NC(=O)[C@@H]1CSCCN21 [Compound 105, 4-((S)-3-methyl-4-(((R)-6-oxo-5,6,6a,7,9,10-hexahydropyrido[3,2-e][1,4]thiazino[4,3-a]pyrazin-3-yl)methyl)piperazin-1-yl)benzonitrile]
- IC50 [1]: 15.8 to 39.8 nM
- PF50 [2]: >10

SMILES: CCNC(=O)c1ccc(N2CCN(Cc3cnc4c(c3)NC(=O)[C@@H]3CSCCN43)CC2)c(F)c1 [Compound 106, (R)—N-ethyl-3-fluoro-4-(4-((6-oxo-5,6,6a,7,9,10-hexahydropyrido[3,2-e][1,4]thiazino[4,3-a]pyrazin-3-yl)methyl)piperazin-1-yl)benzamide]
- IC50 [1]: ≤ 12.6 nM
- PF50 [2]: >5000

SMILES: CCNC(=O)c1ccc(N2CCN(Cc3cnc4c(c3)NC(=O)[C@@H]3CSCCN43)CC2)c(Cl)c1 [Compound 107, (R)-3-chloro-N-ethyl-4-(4-((6-oxo-5,6,6a,7,9,10-hexahydropyrido[3,2-e][1,4]thiazino[4,3-a]pyrazin-3-yl)methyl)piperazin-1-yl)benzamide]
- IC50 [1]: 15.8 to 39.8 nM
- PF50 [2]: >2000

SMILES: CNC(=O)c1ccc(N2CCN(Cc3cnc4c(c3)NC(=O)[C@@H]3CSCCN43)CC2)c(Cl)c1 [Compound 108, (R)-3-chloro-N-methyl-4-(4-((6-oxo-5,6,6a,7,9,10-hexahydropyrido[3,2-e][1,4]thiazino[4,3-a]pyrazin-3-yl)methyl)piperazin-1-yl)benzamide]
- IC50 [1]: ≤ 12.6 nM
- PF50 [2]: >500

SMILES: CCNC(=O)c1ccc(N2CCN(Cc3cnc4c(c3)NC(=O)[C@@H]3CCCCN43)CC2)c(F)c1 [Compound 109, (S)—N-ethyl-3-fluoro-4-(4-((6-oxo-6,6a,7,8,9,10-hexahydro-5H-dipyrido[1,2-a:3′,2′-e]pyrazin-3-yl)methyl)piperazin-1-yl)benzamide]
- IC50 [1]: 15.8 to 39.8 nM
- PF50 [2]: >2000

SMILES: CCNC(=O)c1ccc(N2CCN(Cc3cnc4c(c3)NC(=O)[C@@H]3CCCCN43)CC2)c(Cl)c1 [Compound 110, (S)-3-chloro-N-ethyl-4-(4-((6-oxo-6,6a,7,8,9,10-hexahydro-5H-dipyrido[1,2-a:3′,2′-e]pyrazin-3-yl)methyl)piperazin-1-yl)benzamide]
- IC50 [1]: 15.8 to 39.8 nM
- PF50 [2]: >5000

SMILES: CNC(=O)c1ccc(N2CCN(Cc3cnc4c(c3)NC(=O)[C@@H]3CCCCN43)CC2)c(Cl)c1 [Compound 111, (S)-3-chloro-N-methyl-4-(4-((6-oxo-6,6a,7,8,9,10-hexahydro-5H-dipyrido[1,2-a:3′,2′-e]pyrazin-3-yl)methyl)piperazin-1-yl)benzamide]
- IC50 [1]: 15.8 to 39.8 nM
- PF50 [2]: >5000

SMILES: CNC(=O)c1ccc(N2CCN(Cc3cnc4c(c3)NC(=O)[C@@H]3CCCCN43)CC2)c(F)c1 [Compound 112, (S)-3-fluoro-N-methyl-4-(4-((6-oxo-6,6a,7,8,9,10-hexahydro-5H-dipyrido[1,2-a:3′,2′-e]pyrazin-3-yl)methyl)piperazin-1-yl)benzamide]
- IC50 [1]: ≤ 12.6 nM
- PF50 [2]: >10

SMILES: CNC(=O)c1ccc(N2CCN(Cc3cnc4c(c3)NC(=O)[C@@H]3CCCCN43)CC2)c(C)c1 [Compound 113, (S)—N,3-dimethyl-4-(4-((6-oxo-6,6a,7,8,9,10-hexahydro-5H-dipyrido[1,2-a:3′,2′-e]pyrazin-3-yl)methyl)piperazin-1-yl)benzamide]
- IC50 [1]: ≥ 50.1 nM
- PF50 [2]: >2000

SMILES: CCNC(=O)c1ccc(N2CCN(Cc3cnc4c(c3)NC(=O)[C@@H]3CCCCN43)CC2)c(C)c1 [Compound 114, (S)—N-ethyl-3-methyl-4-(4-((6-oxo-6,6a,7,8,9,10-hexahydro-5H-dipyrido[1,2-a:3′,2′-e]pyrazin-3-yl)methyl)piperazin-1-yl)benzamide]
- IC50 [1]: ≥ 50.1 nM
- PF50 [2]: >2000

SMILES: Cc1cc(C(=O)NC2CC2)ccc1N1CCN(Cc2cnc3c(c2)NC(=O)[C@@H]2CCCCN32)CC1 [Compound 115, (S)—N-cyclopropyl-3-methyl-4-(4-((6-oxo-6,6a,7,8,9,10-hexahydro-5H-dipyrido[1,2-a:3′,2′-e]pyrazin-3-yl)methyl)piperazin-1-yl)benzamide]
- IC50 [1]: 15.8 to 39.8 nM
- PF50 [2]: >2000

SMILES: O=C(NC1CC1)c1ccc(N2CCN(Cc3cnc4c(c3)NC(=O)[C@@H]3CCCCN43)CC2)c(F)c1 [Compound 116, (S)—N-cyclopropyl-3-fluoro-4-(4-((6-oxo-6,6a,7,8,9,10-hexahydro-5H-dipyrido[1,2-a:3′,2′-e]pyrazin-3-yl)methyl)piperazin-1-yl)benzamide]
- IC50 [1]: ≤ 12.6 nM
- PF50 [2]: >5000

SMILES: O=C(NC1CC1)c1ccc(N2CCN(Cc3cnc4c(c3)NC(=O)[C@@H]3CCCCN43)CC2)c(Cl)c1 [Compound 117, (S)-3-chloro-N-cyclopropyl-4-(4-((6-oxo-6,6a,7,8,9,10-hexahydro-5H-dipyrido[1,2-a:3′,2′-e]pyrazin-3-yl)methyl)piperazin-1-yl)benzamide]
- IC50 [1]: 15.8 to 39.8 nM
- PF50 [2]: >5000

SMILES: COc1cc(C#N)ccc1N1CCN(Cc2cnc3c(c2)NC(=O)[C@@H]2CCCCN32)CC1 [Compound 118, (S)-3-methoxy-4-(4-((6-oxo-6,6a,7,8,9,10-hexahydro-5H-dipyrido[1,2-a:3′,2′-e]pyrazin-3-yl)methyl)piperazin-1-yl)benzonitrile]
- IC50 [1]: ≤ 12.6 nM
- PF50 [2]: >5000

SMILES: CC1CN(c2ccccn2)CCN1Cc1cnc2c(c1)NC(=O)[C@@H]1CCCN21 (stereo partly drawn) [Compound 120, (6aS)-3-((2-methyl-4-(pyridin-2-yl)piperazin-1-yl)methyl)-6a,7,8,9-tetrahydropyrido[3,2-e]pyrrolo[1,2-a]pyrazin-6(5H)-one]
- IC50 [1]: ≥ 50.1 nM
- PF50 [2]: ≧0

SMILES: O=C1Nc2cc(CC3CCN(c4ccc(Cl)cc4)CC3)cnc2N2CCC[C@@H]12 [Compound 122, (S)-3-((1-(4-chlorophenyl)piperidin-4-yl)methyl)-6a,7,8,9-tetrahydropyrido[3,2-e]pyrrolo[1,2-a]pyrazin-6(5H)-one]
- IC50 [1]: ≥ 50.1 nM
- PF50 [2]: ≧0

SMILES: N#Cc1ccc(N2CCN(Cc3cnc4c(c3)NC(=O)[C@@H]3CCCN43)CC2)cn1 [Compound 123, (S)-5-(4-((6-oxo-5,6,6a,7,8,9-hexahydropyrido[3,2-e]pyrrolo[1,2-a]pyrazin-3-yl)methyl)piperazin-1-yl)picolinonitrile]
- IC50 [1]: 15.8 to 39.8 nM
- PF50 [2]: >10
